# Experimental data: PMC9782626, “Copper(II) Complexes of 5–Fluoro–Salicylaldehyde: Synthesis, Characterization, Antioxidant Properties, Interaction with DNA and Serum Albumins” (Molecules, 2022)
# Key:
# CT DNA = test: Binding study with CT DNA by UV-vis spectroscopy; design: species or system calf
# Experimental: Initially, the UV–vis spectra of complexes 1–5 (2.5 × 10^−5 – 1 × 10^−4 M) were recorded in the presence of incremental amounts of CT DNA (Figure 4), and the changes of the λmax of the bands observed in the spectra of the complexes were monitored as a means to study the interaction between complexes and CT DNA [50] and to calculate the corresponding DNA-binding constants (Kb). As observed, in the UV–vis spectra of the complexes, at least two bands were observed: band I in the range 314–339 nm and band II in the region 380–428 nm. […] These features indicate the interaction of the complexes with CT DNA [51], but may not provide sufficient information to reveal the possible interaction mode. Therefore, for the elucidation of the CT DNA interaction mode, further experiments involving DNA-viscosity measurements and competitive studies with EB were performed. […]
# S2Binding studies with CT DNA
# The interaction of the compounds with CT DNA was studied by UV-vis spectroscopy, viscosity measurements a nd via competit ive stud ie s with EB by fl uorescence […]
# S2.1 Binding study with CT DNA by UV -vis spectroscopy
# The interaction of the compounds with CT DNA has been studied by UV-vis spectroscopy in order to investigate the possible binding modes to CT DNA and to calculate the DNA-binding constants (Kb). The Kb constants (in M-1) were determined by the Wolfe-Shimer equation (eq. S1) [S3] and the plots [DNA]/(εA-εf) versus [DNA] using the UV-vis spectra of the compounds (20 -100 μM) recorded for a constant concentration with increasing concentrations of CT DNA for diverse [complex]/[DNA] mixing ratios (= r ).
# Control experiments with DMSO were performed and no changes in the spectra of CT DNA were observed. […]
# [DNA] = [DNA] + 1 (eq. S1) […]
# where [DNA] is the concentration of DNA in base pa irs, εA = Aobsd/[compound ], εf = the extinction coefficient for the free compound and ε b = the extinction coefficient for the compound in the fully bound form. Kb is given by the ratio of slope to the y intercept in plots [DNA]/(εA-εf) versus[DNA]. […]
# [1] = target: T1, bovine serum albumin (BSA) (Bos taurus, UniProt P02769); test: Albumin binding by tryptophan fluorescence quenching (BSA); conditions: for ΔΙ/Ιο, quenching of the BSA fluorescence: BSA 3 μM, λex 295 nm; for % relative BSA fluorescence emission intensity I/Io remaining (% of initial): final value, pH 7.0; for BSA-binding constant K: Scatchard equation; for BSA-quenching constant kq: from Stern–Volmer plots, τo 10^-8 s
# T1 construct: purchased Sigma–Aldrich Co
# T1 sequence (P02769 25-607): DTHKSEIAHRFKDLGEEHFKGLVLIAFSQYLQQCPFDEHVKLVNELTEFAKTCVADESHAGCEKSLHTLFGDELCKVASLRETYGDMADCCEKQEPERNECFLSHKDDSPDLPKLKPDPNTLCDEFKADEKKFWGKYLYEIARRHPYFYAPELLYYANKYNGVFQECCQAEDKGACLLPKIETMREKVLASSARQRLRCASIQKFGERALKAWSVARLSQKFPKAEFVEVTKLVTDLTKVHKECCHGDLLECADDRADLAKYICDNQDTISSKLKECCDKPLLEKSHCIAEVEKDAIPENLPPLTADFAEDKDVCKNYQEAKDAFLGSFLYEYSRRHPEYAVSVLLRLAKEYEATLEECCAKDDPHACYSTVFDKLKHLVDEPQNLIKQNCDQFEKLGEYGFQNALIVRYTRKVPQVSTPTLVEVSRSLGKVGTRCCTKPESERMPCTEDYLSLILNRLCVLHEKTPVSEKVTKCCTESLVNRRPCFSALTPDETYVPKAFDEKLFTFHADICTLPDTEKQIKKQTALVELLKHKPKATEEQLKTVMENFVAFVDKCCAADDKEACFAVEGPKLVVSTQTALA
# Source text: Serum albumins are among the important proteins of the circulatory system. Their main role is to carry drugs and other bioactive small molecules through the bloodstream. BSA and HSA are structurally homologous albumins, having two and one tryptophan residues, respectively. The tryptophan residues of both albumins are responsible for the intense fluorescence emission band with λem,max = 342 nm for BSA and 350 nm for HSA, respectively, when their solutions are excited at 295 nm. […] The inner-filter effect was calculated with Equation (S4) and it was found too low to affect the measurements.
# When the compounds were added to a solution of the albumins (3 μM), a significant quenching of the BSA (λem = 342 nm) and HSA (λem = 350 nm) fluorescence emission bands was observed (Figure 7) which was more pronounced in the case of BSA (Table 7 and Figure 8). […] The observed quenching may be ascribed to changes in the tryptophan environment of SA resulting from possible denaturation of their secondary structure, induced by the binding of the complexes to the albumins. […]
# Io =1+ k τ [Q] =1+ K [Q] […]
# S3Albumin -binding studies
# In order to investigate if the compounds can bind to carrier proteins like serum albumins, we carried out albumin binding study by tryptophan fluorescence quenching experiments using bo vine serum albumin (BSA, 3 μM) in buffer (containing 15 mM trisodium citrate and 150 mM NaCl at pH 7.0). The quenching of the emission intensity of tryptophan residues of BSA at 343 nm was monitored using the co mpounds as que ncher s with increasing concentration [S4]. The fluo rescence emission spectra of the compounds were also recorded with λex = 295 nm. No fluorescence emission band was recorded and thus it was not related to the compounds . The influence of the inner-filter effect [S6] on the measurements wa s evaluated by equation S4.
# Where Icorr = corrected intensity, Imeas = the measured intensity, c = the concentration of the quencher, d = the cuvette (1 cm), ε (λexc ) and ε(λe m) = the ε of the quencher at the excitation and the emission wavelength, respectively, as calculated from the UV-vis spectra of the […]
# The Stern-Volmer and Scatchard graphs are used to study the interaction of the compounds with serum albumins. According to Stern-Volmer quenching equation (eq.
# S2), where Io = the initial tryptophan fluorescence intensity of SA, I = the tryptophan fluorescence intensity of SA after the addition of the quencher, kq = the quenching […]
# constant, KSV = the Stern-Volmer constant, τo = the average lifetime of SA without the quencher, and, tak ing as fluorescence lifet ime (τo) of tryptophan in SA at around 10-8 s [S 4] , KSV (in M -1) can be obtained by the slope of the diagram Io/I versus [compound] (Stern-Volmer plots), and subsequently the quenching (kq, in M -1s-1) may be calculated from eq.
# From the Scatchard equation (eq. S5): […]
# where n is the number of binding sites per albumin and K is the SA-binding constant (K, in M -1) is calculated from the slope in plots (ΔI/Io)/[complex] versus ΔI/Io and n is given by the ratio of y intercept to the slope [S7].
# S1 Kontogiorgis, C.; Hadjipavlou–Lit ina, D. Biological Evaluat ion of Several Coumarin Derivatives Designed as Possible Anti–inflammatory/Antioxidant Agents. J. Enz. Inhib.
# S2 Ruch, R.J.; Cheng, C.; Klaunig, J.E. Prevention of cytotoxicity and inhibition of intercellular communication by antioxidant catechins isolated from Chinese green tea.
# S3 Wolfe, A.; Shimer, G.; Meehan, T. Polycyclic Aromatic Hydrocarbons Physically Intercalate into Duplex Regions of Denatured DNA. Biochemistry 1987, 26, 6392–6396.
# S4 Lakowicz, J.R. Principles of Fluorescence Spectroscopy , 3rd ed.; Plenum Press: New […]
# S5 Heller, D.P.; Greenstock, C.L. Fluorescence lifetime analysis of DNA intercalated ethid ium bromide and quench ing by free dye. Biophys. Chem.1994,50, 305–312.
# S6 Stella, L.; Capodilupo, A.L.; Bietti, M. A reassessment of the association between […]
# azulene and [60]fullerene. […]
# [2] = first UV band listed in the cell (295–334 nm)
# [3] = second UV band listed in the cell (330–421 nm)
structure (smiles),measurement,setting,value
"O=Cc1cc(F)ccc1[O-].O=[N+]([O-])[O-].[Cu+2].c1cnc2c(c1)ccc1cccnc12 [Complex 4, [Cu(5–F–salo)(phen)(NO3)]]","ΔA/Aο, percentage of hyper-/hypo-chromism upon addition of CT DNA",CT DNA; [2],−38%
same,"ΔA/Aο, percentage of hyper-/hypo-chromism upon addition of CT DNA",CT DNA; [3],−29%
same,"ΔA/Aο, percentage of hyper-/hypo-chromism upon addition of CT DNA",CT DNA; third UV band listed in the cell (405 nm),+44%
same,"ΔΙ/Ιο, quenching of the BSA fluorescence",[1],75.3%
same,% relative BSA fluorescence emission intensity I/Io remaining (% of initial),[1],24.7%
same,BSA-binding constant K,[1],2.35 (±0.10) × 10^5 M^−1
same,BSA-quenching constant kq,[1],1.62 (±0.06) × 10^13 M^−1 s^−1
"O=Cc1cc(F)ccc1[O-].[Cl-].[Cu+2].c1ccc(Nc2ccccn2)nc1 [Complex 2, [Cu(5–F–salo)(bipyam)Cl]]","ΔA/Aο, percentage of hyper-/hypo-chromism upon addition of CT DNA",CT DNA; [2],−12%
same,"ΔA/Aο, percentage of hyper-/hypo-chromism upon addition of CT DNA",CT DNA; [3],> +50%
same,"ΔΙ/Ιο, quenching of the BSA fluorescence",[1],54.0%
same,% relative BSA fluorescence emission intensity I/Io remaining (% of initial),[1],46.0%
same,BSA-binding constant K,[1],3.15 (±0.18) × 10^4 M^−1
same,BSA-quenching constant kq,[1],6.49 (±0.14) × 10^12 M^−1 s^−1
"CO.Cc1ccc2ccc3ccc(C)nc3c2n1.O=Cc1cc(F)ccc1[O-].[Cl-].[Cu+2] [Complex 3, [Cu(5–F–salo)(neoc)Cl].CH3OH]","ΔA/Aο, percentage of hyper-/hypo-chromism upon addition of CT DNA",CT DNA; [2],−41%
same,"ΔA/Aο, percentage of hyper-/hypo-chromism upon addition of CT DNA",CT DNA; [3],+34%
same,"ΔΙ/Ιο, quenching of the BSA fluorescence",[1],84.3%
same,% relative BSA fluorescence emission intensity I/Io remaining (% of initial),[1],15.7%
same,BSA-binding constant K,[1],2.51 (±0.10) × 10^5 M^−1
same,BSA-quenching constant kq,[1],2.75 (±0.10) × 10^13 M^−1 s^−1
"O=Cc1cc(F)ccc1[O-].O=[N+]([O-])[O-].[Cu+2].c1ccc(-c2ccccn2)nc1 [Complex 5, [Cu(5–F–salo)(bipy)(NO3)]]","ΔA/Aο, percentage of hyper-/hypo-chromism upon addition of CT DNA",CT DNA; [2],−72%
same,"ΔA/Aο, percentage of hyper-/hypo-chromism upon addition of CT DNA",CT DNA; [3],−28%
same,"ΔΙ/Ιο, quenching of the BSA fluorescence",[1],68.3%
same,BSA-binding constant K,[1],3.23 (±0.12) × 10^5 M^−1
same,BSA-quenching constant kq,[1],1.87 (±0.09) × 10^13 M^−1 s^−1
"O=Cc1cc(F)ccc1[O-].O=Cc1cc(F)ccc1[O-].[Cu+2] [Complex 1, [Cu(5–F–salo)2]]","ΔA/Aο, percentage of hyper-/hypo-chromism upon addition of CT DNA",CT DNA; [2],−34%
same,"ΔA/Aο, percentage of hyper-/hypo-chromism upon addition of CT DNA",CT DNA; [3],−20%
same,"ΔΙ/Ιο, quenching of the BSA fluorescence",[1],62.5%
same,% relative BSA fluorescence emission intensity I/Io remaining (% of initial),[1],37.5%
same,BSA-binding constant K,[1],4.05 (±0.02) × 10^4 M^−1
same,BSA-quenching constant kq,[1],9.38 (±0.28) × 10^12 M^−1 s^−1
